Reference: patent US10532066B2, “Surfactant lipids, compositions thereof, and uses thereof” (National Jewish Health, priority 2007, dated 2020)

What was measured:
[1] = tested on: differentiated U937 cells; experiment: LPS-induced TNF-α secretion by differentiated U937 cells; type: cell-based, human; conditions: LPS 10 ng/ml, 6 h, liposomes; LPS without phospholipid = 100%
Description: (§1) FIG. 1. Anionic phospholipids inhibit inflammatory mediator production induced by LPS. Liposomes composed of sphingomyelin (SM), phosphatidylethanolamine (PE) dipalmitoyl-phosphatidylcholine ((DPPC), phosphatidylserine (PS), palmitoyl-oleoyl-phosphatidylglycerol (POPG) and phosphatidylinositol (PI) were formed by bath-sonication for 30 min at room temperature. LPS (10 ng/ml) and different concentrations of phospholipids were added to monolayer cultures of differentiated U937 cells (A), or primary rat alveolar macrophages (B). At 6 h after stimulation, media were collected and secreted TNF-α levels were determined in U937 cultures. NO production was determined 24 h after stimulating rat alveolar macrophages. LPS stimulation in the absence of phospholipid was set as 100%. […] The average TNF-α production upon LPS stimulation was (8.0±0.54 ng/ml). The average NO production upon LPS stimulation was 12.17±0.27 μM.
(§2) FIG. 2. The inhibitory effect of phosphatidylglycerols on LPS-induced inflammatory mediator production is molecular species specific. PG liposomes were formed by bath-sonication for 30 min at room temperature. LPS (10 ng/ml) and different concentrations of PG were added to monolayer cultures of differentiated U937 cells (A) or rat alveolar macrophages (B). Media TNF-α measurements were performed 6 h after stimulation. Media NO measurements were performed 24 h after stimulation. LPS stimulation without PG was set at 100%. The molecular species of PG shown on the graph are 8:0; dioctanoyl-phosphatidylglycerol, 12:0; dilauroyl-phosphatidylglycerol (DLPG), 14:0; dimyristoyl-phosphatidylglycerol (DMPG), 16:0; dipalmitoyl-phosphatidylglycerol (DPPG), 18:0; distearoyl-phosphatidylglycerol, 16:0/18:1; palmitoyl-oleoyl-phosphatidylglycerol (POPG). […] The average TNF-α production upon LPS stimulation was 11.3±0.7 ng/ml. The average NO production upon LPS stimulation was 10.1±0.6 μM.
FIG. 3. […] Surfactant lipid (SL) and POPG were dried under nitrogen, and hydrated at 37° C. for 1 h. (A) SL and POPG were mixed in organic solvents prior to drying and hydrating and subsequently liposomes were produced. (B) SL and POPG were made as independent populations of liposomes that were subsequently mixed prior to macrophage treatment. 10 ng/ml of LPS and different concentrations of liposome mixtures were added to monolayer cultures of differentiated U937 cells. 6 h after stimulation, media were collected and TNF-α production was determined. LPS stimulation without phospholipid was set as 100%. […] The average TNF-α production upon LPS stimulation was 7.0±0.2 ng/ml.
U937 cells were induced to differentiate by treatment with 10 nM phorbol myristate acetate (PMA) for 48 h. The cells (1.3×10^5/well) were placed in 96-well plates and further incubated in the absence of PMA for 24 h in RPMI 1640 medium containing 10% BGS. Rat alveolar macrophages (5×10^5/well) were incubated in 24-well plates for 2 h after isolation. The indicated concentration of phospholipids was added to the cultures 30 min before adding LPS. After LPS addition cultures were incubated for 6 h at 37° C. at an atmosphere of 95% air and 5% CO2. At the end of the incubation period the medium was collected and assayed for TNF-α concentrations using an ELISA kit.
Surfactant lipids were isolated from the bronchioalveolar lavage of Sprague-Dawley rats, 28 days after intratracheal instillation of 25 mg of silica (˜125 mg/kg). Initially, the surfactant was purified by the method of Hawgood et. al. (25) using NaBr density gradient centrifugation. The purified surfactant was extracted with butanol (26) and segregated into butanol-soluble and -insoluble material.

[2] = tested on: primary rat alveolar macrophages; experiment: LPS-induced NO production by rat alveolar macrophages; type: cell-based; conditions: LPS 10 ng/ml, 24 h, liposomes; LPS without phospholipid = 100%
Description: as §1, §2
Rat alveolar macrophages were isolated from bronchoalveolar lavage fluid (BALF) of Sprague-Dawley rats. The lungs were lavaged with pyrogen-free saline, and alveolar macrophages were sedimented by centrifugation at 150×g×5 min. Isolated macrophages were plated at 5×10^5 cells/well in 24-well plates (Falcon) in RPMI 1640 medium containing 10% BGS. The cells were allowed to adhere for 2 h and then used for the experiments after washing with phosphate-buffered-saline (PBS) to remove the unattached cells.
Nitric oxide (NO) accumulation in the supernatant was determined as previously reported (28). Briefly, rat alveolar macrophages were stimulated with LPS (10 ng/ml) or LPS plus phospholipids for 24 h. Culture supernatants (usually […]) were combined with an equal volume of Greiss reagent, and the samples were incubated at room temperature for 10 min before the absorbance was quantified at 550 nm. With the use of a standard curve, the nmol of NO produced were determined and normalized to total cell number in each sample.

[3] = tested on: U937 macrophages; experiment: TNFα in U937 macrophages stimulated with smooth LPS, with SP-A and PtdGro; type: cell-based; conditions: 100 ng/ml smooth LPS, 6 hours, lipid 20 μg/ml
Description: U937 macrophages were stimulated with 100 ng/ml smooth LPS for 6 hours. The culture medium was harvested and assayed for the presence of TNFα by ELISA. Control cultures received no additions. SP-A was added as indicated at 10 μg/ml. Saturated-(16:0/16:0)-PtdGro was added at 20 μg/ml. Unsaturated-(18:1/18:1)-PtdGro was added at 20 μg/ml.

Compound	LPS-induced TNF-α production [1]	LPS-induced NO production [2]	anti-inflammatory effects on LPS stimulated macrophages (TNFα) [3]
CCCCCCCC(=O)OCC(COP(=O)(O)OCC(O)CO)OC(=O)CCCCCCC (stereo not drawn) [8:0, dioctanoyl-phosphatidylglycerol]	failed to antagonize	failed to antagonize	–
CCCCCCCCCCCC(=O)OCC(COP(=O)(O)OCC(O)CO)OC(=O)CCCCCCCCCCC (stereo not drawn) [12:0, dilauroyl-phosphatidylglycerol]	modest antagonists	–	–
CCCCCCCCCCCCCCCCCC(=O)OCC(COP(=O)(O)OCC(O)CO)OC(=O)CCCCCCCCCCCCCCCCC (stereo not drawn) [18:0, distearoyl-phosphatidylglycerol]	failed to antagonize	failed to antagonize	–
CCCCCCCC/C=C\CCCCCCCC(=O)OC[C@H](COP(=O)(O)OCC(O)CO)OC(=O)CCCCCCC/C=C\CCCCCCCC (stereo partly drawn) [unsaturated-PtdGro, dioleoyl-phosphatidylglycerol]	–	–	potent anti-inflammatory effects
phosphatidylethanolamine [PE]	no significant effect	no significant effect	–
phosphatidylserine [PS]	less effective than PI and POPG	less effective than PI and POPG	–
sphingomyelin [SM]	no significant effect	no significant effect	–
